Data on nine compounds can be found in US5013743A, “Selective antibacterial agent against campytobacter” (Takeda Chemical Industries, Ltd., priority 1989, dated 1991).

The test system of test [1] is C. pylori CLO 1. The test is described as follows: MIC, agar-plate dilution method, test strain F. The test is classed as cell-based. To be noted: Helicobacter pylori, CLO1, 72 h, Brucella agar, 37° C., 3 days. On the procedure:
(§1) The minimum inhibitory concentration (MIC) of each compound was determined by the agar-plate dilution method based on the standard method advocated by Japan Society of Chemotherapy [cf: Chemotherapy, Jan. '81, p. 76]. The volume of agar medium per plate was 20 ml. Each of the test compounds was dissolved in dimethylsulfoxide at a concentration of 80 mg/ml or 40 mg/ml, and diluted 10 times with sterile distilled water. Furthermore, the aqueous solution of 8 mg/ml or 4 mg/ml was diluted serially 2-fold with sterile distilled water. To 2 ml of the diluted solution was added 18 ml of Brucella agar (BBL Microbiology Systems, Becton Dickinson and Co., Cockeysville, Md. 21030) containing 7% defibrinated horse blood (manufactured by Nippon Bio-supp. Center) and mixed well. Test strains frozen at -80° C. in Brucella broth (BBL) containing 10% horse serum were thawed and inoculated on a Brucella agar slant medium containing 7% defibrinated horse blood. The medium was incubated anaerobically at 37° C. for 3 days in a jar containing a piece of sponge sufficiently impregnated with water and Campy Pak™ (BBL). The organisms grown on the slant medium were collected and suspended in a Brucella broth to correspond to the turbidity of about 10^8 CFU/ml of common bacteria. One platinum loop of inoculum was streaked on the medium plates for determination. The plates were incubated under the same conditions as described above.

The subject of test [2] is genus Campylobacter. In words: Antibacterial activity against the genus Campylobacter (Tables 2 and 3, summary in words). To be noted: fluorinated alkyl derivatives vs other derivatives, Table 2 and Table 3. In kind it is cell-based, Campylobacter pylori. Here is the method: as §1
Test [3] concerns C. pylori KS 13. The test is described as follows: MIC, agar-plate dilution method, test strain E. In kind it is cell-based. To be noted: Helicobacter pylori, KS13, 72 h, Brucella agar, 37° C., 3 days. Here is the method:
as §1

Test [4] concerns C. pylori NCTC 11916. In words: MIC, agar-plate dilution method, test strain A. To be noted: Helicobacter pylori, NCTC11916, 72 h, Brucella agar, 37° C., 3 days. The test is classed as cell-based. Here is the method: as §1
Test [5] has as its system C. pylori NCTC 11637. In words: MIC, agar-plate dilution method, test strain B. In kind it is cell-based. The settings on record: Helicobacter pylori, NCTC11637, 72 h, Brucella agar, 37° C., 3 days. On the procedure:
as §1

Test [6] has as its system C. pylori PCL 56. The test is described as follows: MIC, agar-plate dilution method, test strain C. In kind it is cell-based. To be noted: Helicobacter pylori, PCL56, 72 h, Brucella agar, 37° C., 3 days. On the procedure:
as §1, with “above. […] The results are shown in Table 2 and Table 3. | C: C. pylori PCL 56” for “above.”

Test [7] relates to C. pylori CPY 00111. The test is described as follows: MIC, agar-plate dilution method, test strain D. The test is classed as cell-based. The settings on record: Helicobacter pylori, CPY00111, 72 h, Brucella agar, 37° C., 3 days. Here is the method: as §1
The test system of test [8] is C. pylori CLO 6. In words: MIC, agar-plate dilution method, test strain G. The test is classed as cell-based. The settings on record: Helicobacter pylori, CLO6, 72 h, Brucella agar, 37° C., 3 days. Here is the method: as §1

In brackets after ≈: the same amount, converted by molar mass.

In general, MIC refers to the smallest concentration in the dilution series that meets the test's criterion for growth inhibition. A lower MIC goes with inhibition by little substance. Consider `Cc1c(OCC(F)(F)C(F)(F)F)ccnc1C[S+]([O-])c1nc2ccccc2[nH]1` (stereo not shown) [Compound 3], for which the MIC came to 1.56 µg/mL (≈ 3.72 µM) in test [1]; 3.13 µg/mL (≈ 7.46 µM) in test [3]; 3.13 µg/mL (≈ 7.46 µM) in test [4]; 6.25 µg/mL (≈ 14.9 µM) in test [5]; 3.13 µg/mL (≈ 7.46 µM) in test [6]; 3.13 µg/mL (≈ 7.46 µM) in test [7]. For the same compound, in test [8], the MIC was 6.25 µg/mL (≈ 14.9 µM). Also, in test [2], the “antibacterial activity compared with other derivatives” value is reported as “stronger antibacterial activity”.
In the case of `Cc1c(OCC(F)(F)C(F)F)ccnc1C[S+]([O-])c1nc2ccccc2[nH]1` (stereo not shown) [Compound 4], the MIC was determined as 0.78 µg/mL (≈ 1.94 µM) in test [1]; 1.56 µg/mL (≈ 3.89 µM) in test [3]; 1.56 µg/mL (≈ 3.89 µM) in test [4]; 6.25 µg/mL (≈ 15.6 µM) in test [5]; 6.25 µg/mL (≈ 15.6 µM) in test [6]; 1.56 µg/mL (≈ 3.89 µM) in test [7]. This compound registered an MIC in test [8] of 6.25 µg/mL (≈ 15.6 µM). Besides, in test [2], the “antibacterial activity compared with other derivatives” value is “stronger antibacterial activity”.
In the case of `CC(C)COc1ccnc(CSc2nc3ccccc3[nH]2)c1` [Compound 7], the MIC in test [1], in test [3], in test [4], in test [5], in test [6] and in test [7] was 12.5 µg/mL (≈ 39.9 µM) throughout. Also, the MIC in test [8] worked out at 12.5 µg/mL (≈ 39.9 µM).
As to `CC(C)COc1ccnc(CSc2nc3cc(C(F)(F)F)ccc3[nH]2)c1` [Compound 8], the MIC in test [1], in test [3], in test [4], in test [5], in test [6] and in test [7] was 12.5 µg/mL (≈ 32.8 µM) throughout. The compound further returned an MIC in test [8] of 12.5 µg/mL (≈ 32.8 µM).
On to `CC(C)Oc1ccnc(CSc2nc3cc(C(F)(F)F)ccc3[nH]2)c1` [Compound 9], for which the MIC in test [1], in test [3], in test [4], in test [5], in test [6] and in test [7] was 12.5 µg/mL (≈ 34 µM) each time. This compound yielded an MIC in test [8] of 12.5 µg/mL (≈ 34 µM).
With `C=CCOc1ccnc(CSc2nc3cc(C(F)(F)F)ccc3[nH]2)c1` [Compound 10], the MIC in test [1], in test [3], in test [4], in test [5], in test [6] and in test [7] was 25 µg/mL (≈ 68.4 µM) in each case. In test [8], this compound registered an MIC of 25 µg/mL (≈ 68.4 µM).
For the compound `C#CCOc1ccnc(CSc2nc3cc(C(F)(F)F)ccc3[nH]2)c1` [Compound 11], the MIC in test [1], in test [3], in test [4], in test [5], in test [6] and in test [7] was 12.5 µg/mL (≈ 34.4 µM) in each case. In addition, in test [8], the MIC was 12.5 µg/mL (≈ 34.4 µM).
With `Cc1c(OCC(F)(F)C(F)F)ccnc1CSc1nc2ccccc2[nH]1` [Compound 12], the MIC came out at 1.56 µg/mL (≈ 4.05 µM) in test [1]; 1.56 µg/mL (≈ 4.05 µM) in test [3]; 1.56 µg/mL (≈ 4.05 µM) in test [4]; 0.78 µg/mL (≈ 2.02 µM) in test [5]; 1.56 µg/mL (≈ 4.05 µM) in test [6]; 1.56 µg/mL (≈ 4.05 µM) in test [7]. The MIC in test [8] is 0.78 µg/mL (≈ 2.02 µM). Besides, in test [2], the “antibacterial activity compared with other derivatives” value is on record as “stronger antibacterial activity”.
For the compound `Cc1c(OCC(F)(F)C(F)(F)F)ccnc1CSc1nc2ccccc2[nH]1` [Compound 13], the MIC in test [1], in test [3], in test [4], in test [5], in test [6] and in test [7] was 1.56 µg/mL (≈ 3.87 µM) each time. The same compound came in with an MIC in test [8] of 1.56 µg/mL (≈ 3.87 µM). Besides, the “antibacterial activity compared with other derivatives” value in test [2] is “stronger antibacterial activity”.
